Assay results: US6420367B1, “Pyrimidine derivatives exhibiting antitumor activity” (Shionogo & Co., Ltd., priority 1998, dated 2002)
In brackets after ≈: the same amount, converted by molar mass.

Experiments:
[1] = tested on: human squamous lung cancer Ma44; assay: In vitro cell growth inhibition test, MTT assay; format: cell-based; conditions: MTT assay 4 days after compound addition
Outline: (§1)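 Read-out is MTT-based cell growth inhibition, run in parallel on human lung, colon and pancreatic (PANC-1) tumour lines.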

[2] = tested on: human pancreas cancer PANC-1; assay: In vitro cell growth inhibition test, MTT assay; format: cell-based; conditions: MTT assay 4 days after compound addition
Outline: as §1

[3] = tested on: human squamous lung cancer RERF-RC-AI; assay: In vitro cell growth inhibition test, MTT assay; format: cell-based; conditions: MTT assay 4 days after compound addition
Outline: as §1

human colon cancer HT29 = assay: In vitro cell growth inhibition test, MTT assay; format: cell-based; conditions: MTT assay 4 days after compound addition
Outline: as §1

[4] = tested on: human lung adenocarcinoma A549; assay: In vitro cell growth inhibition test, MTT assay; format: cell-based; conditions: MTT assay 4 days after compound addition
Outline: as §1

[5] = tested on: DT-C cells (pGV-P-transfected v-ki-ras-transformed NIH3T3 cells); assay: Luciferase activity in control DT-C cells (IC50-C): non-specific transcription-inhibitory effect or cytotoxicity; format: cell-based, mouse; conditions: tested concentration nearest to 50% inhibition in DT-C cells; index of non-specific transcription inhibition or cytotoxicity
Outline: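 Luciferase from an SV40 minimal promoter was read in DT-C cells (2500 cells/well) 24 h after compound addition at […] to 0.51 ng/ml in 3-fold steps. IC50-C is the tested concentration nearest 50% inhibition.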

[6] = tested on: DT-R cells (pRRE3-luc-transfected v-ki-ras-transformed NIH3T3 cells); signal derived from Ras oncogene products; assay: Inhibitory effect against cellular signaling derived from Ras oncogene products: luciferase reporter, dissociation of DT-R from DT-C activity (MAC); format: cell-based, mouse; conditions: minimal tested concentration at which luciferase activities of DT-C cells and DT-R cells dissociated
Outline: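 Value is a minimal active concentration: lowest dose where Ras-responsive reporter (DT-R) luciferase diverges from SV40-minimal-promoter control (DT-C). Both transfected v-Ki-ras NIH3T3 lines received 3-fold serial dilutions for 24 h at 37 °C in 10% FCS medium before lysis and luminometry.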

Row | SMILES | IC50, Ma44 [1] [mg/L] | IC50, PANC-1 [2] [mg/L] | IC50, RERF-LC-AI [3] [mg/L] | IC50, HT29 (human colon cancer HT29) [mg/L] | IC50, A549 [4] [mg/L] | IC50-C [5] [mg/L] | MAC (Minimal Active Concentration) [6] [µg/mL]
1 | CCNC(=Nc1nc(CC)ncc1CSc1nnc(-c2ccc([N+](=O)[O-])cc2)o1)NCC [Compound A-131] | 0.028 (≈ 0.0613 µM) | 0.028 (≈ 0.0613 µM) | 0.015 (≈ 0.0329 µM) | 0.025 (≈ 0.0548 µM) | 0.03 (≈ 0.0657 µM) | >10 | 0.0412
2 | CCNC(=Nc1nc(C)ncc1CSc1nnc(-c2ccc([N+](=O)[O-])cc2)o1)NC [Compound A-133] | 0.015 (≈ 0.035 µM) | 0.015 (≈ 0.035 µM) | 0.01 (≈ 0.0233 µM) | 0.068 (≈ 0.159 µM) | 0.047 (≈ 0.11 µM) | >10 | 0.0137
3 | CCCCNC(=Nc1nc(C)ncc1CSc1nnc(-c2ccc([N+](=O)[O-])cc2)o1)NCC [Compound A-136] | 0.016 (≈ 0.034 µM) | 0.016 (≈ 0.034 µM) | 0.012 (≈ 0.0255 µM) | 0.011 (≈ 0.0234 µM) | 0.031 (≈ 0.0659 µM) | 3.33 (≈ 7.08 µM) | 0.0137
4 | CCCNC(=Nc1nc(CC)ncc1CSc1nnc(-c2ccc([N+](=O)[O-])cc2)o1)NCCC [Compound A-138] | 0.04 (≈ 0.0825 µM) | 0.026 (≈ 0.0537 µM) | 0.043 (≈ 0.0887 µM) | 0.03 (≈ 0.0619 µM) | 0.046 (≈ 0.0949 µM) | 1.11 (≈ 2.29 µM) | 0.0412
5 | CCCNC(=Nc1nc(CC)ncc1CSc1nnc(-c2ccc(F)cc2N)o1)NCCC [Compound A-140] | 0.047 (≈ 0.0995 µM) | 0.012 (≈ 0.0254 µM) | 0.015 (≈ 0.0317 µM) | 0.013 (≈ 0.0275 µM) | 0.022 (≈ 0.0466 µM) | 3.33 (≈ 7.05 µM) | 0.0137
6 | CCCNC(=Nc1nc(C)ncc1CSc1nnc(-c2ccc(Cl)cc2)o1)NCCC [Compound A-142] | 0.021 (≈ 0.0457 µM) | 0.015 (≈ 0.0326 µM) | 0.018 (≈ 0.0391 µM) | 0.032 (≈ 0.0696 µM) | 0.038 (≈ 0.0826 µM) | 1.11 (≈ 2.41 µM) | 0.0412
7 | CCCNC(=Nc1nc(C)ncc1CSc1nnc(-c2ccc(C)cc2)o1)NCCC [Compound A-143] | 0.033 (≈ 0.0751 µM) | 0.02 (≈ 0.0455 µM) | 0.023 (≈ 0.0523 µM) | 0.024 (≈ 0.0546 µM) | 0.052 (≈ 0.118 µM) | 1.11 (≈ 2.53 µM) | 0.0412
8 | CCCNC(=Nc1nc(C)ncc1CSc1nnc(-c2ccc(N)cc2)o1)NCCC [Compound A-144] | 0.031 (≈ 0.0704 µM) | 0.016 (≈ 0.0363 µM) | 0.007 (≈ 0.0159 µM) | 0.006 (≈ 0.0136 µM) | 0.019 (≈ 0.0431 µM) | >10 | 0.0137
9 | CNC(=Nc1nc(C)ncc1CSc1nnc(-c2ccc([N+](=O)[O-])cc2)o1)NC [Compound A-145] | 0.032 (≈ 0.0772 µM) | 0.014 (≈ 0.0338 µM) | 0.005 (≈ 0.0121 µM) | 0.007 (≈ 0.0169 µM) | 0.09 (≈ 0.217 µM) | >10 | 0.0412
10 | CCCNC(=Nc1nc(C)ncc1CSc1nnc(-c2ccc([N+](=O)[O-])cc2)o1)NC [Compound A-146] | 0.052 (≈ 0.118 µM) | 0.024 (≈ 0.0542 µM) | 0.011 (≈ 0.0249 µM) | 0.014 (≈ 0.0316 µM) | 0.18 (≈ 0.407 µM) | >10 | 0.0137
11 | CNC(=Nc1nc(C)ncc1CSc1nnc(-c2ccc(N)cc2)o1)NC [Compound A-147] | 0.071 (≈ 0.185 µM) | 0.018 (≈ 0.0468 µM) | 0.008 (≈ 0.0208 µM) | 0.008 (≈ 0.0208 µM) | 0.1 (≈ 0.26 µM) | >10 | 0.123
12 | CCCNC(=Nc1nc(CC)ncc1CSc1nnc(-c2ccc([N+](=O)[O-])cc2)o1)NCC [Compound A-149] | 0.085 (≈ 0.181 µM) | 0.041 (≈ 0.0871 µM) | 0.026 (≈ 0.0553 µM) | 0.034 (≈ 0.0723 µM) | 0.025 (≈ 0.0531 µM) | 3.33 (≈ 7.08 µM) | 0.123
13 | CCc1ncc(CSc2nnc(-c3ccc([N+](=O)[O-])cc3)o2)c(N=C(NC)NC)n1 [Compound A-152] | 0.039 (≈ 0.091 µM) | 0.013 (≈ 0.0303 µM) | 0.006 (≈ 0.014 µM) | 0.082 (≈ 0.191 µM) | 0.069 (≈ 0.161 µM) | >10 | 0.123
14 | CCc1ncc(CSc2nnc(-c3ccc(N)cc3)o2)c(N=C(NC)NC)n1 [Compound A-153] | 0.089 (≈ 0.223 µM) | 0.022 (≈ 0.0552 µM) | 0.011 (≈ 0.0276 µM) | 0.015 (≈ 0.0376 µM) | 0.067 (≈ 0.168 µM) | >10 | 0.0412
15 | CCNC(=Nc1nc(C)ncc1CSc1nnc(-c2ccc([N+](=O)[O-])cc2OC)o1)NCC [Compound A-161] | 0.0071 (≈ 0.015 µM) | 0.0053 (≈ 0.0112 µM) | 0.0068 (≈ 0.0144 µM) | 0.0055 (≈ 0.0116 µM) | 0.012 (≈ 0.0254 µM) | >10 | 0.0412
16 | CNC(=Nc1nc(C)ncc1CSc1nnc(-c2ccc([N+](=O)[O-])cc2OC)o1)NC [Compound A-162] | 0.014 (≈ 0.0315 µM) | 0.0093 (≈ 0.0209 µM) | 0.0085 (≈ 0.0191 µM) | 0.0067 (≈ 0.0151 µM) | 0.028 (≈ 0.063 µM) | >10 | 0.123
17 | CCNC(=Nc1nc(C)ncc1CSc1nnc(-c2ccc(N)cc2)o1)NC [Compound A-168] | 0.017 (≈ 0.0427 µM) | 0.0059 (≈ 0.0148 µM) | 0.0028 (≈ 0.00703 µM) | 0.0055 (≈ 0.0138 µM) | 0.012 (≈ 0.0301 µM) | >10 | 0.0412
18 | CNC(=Nc1nc(C)ncc1CSc1nnc(-c2ccc([N+](=O)[O-])cc2)o1)NC(C)C [Compound A-170] | 0.0054 (≈ 0.0122 µM) | 0.0065 (≈ 0.0147 µM) | 0.0027 (≈ 0.0061 µM) | 0.0077 (≈ 0.0174 µM) | 0.014 (≈ 0.0316 µM) | >10 | <0.000508
19 | CNC(=Nc1ncncc1CSc1nnc(-c2ccc(N)cc2)o1)NC [Compound A-174] | 0.076 (≈ 0.205 µM) | 0.014 (≈ 0.0378 µM) | 0.0067 (≈ 0.0181 µM) | 0.012 (≈ 0.0324 µM) | 0.032 (≈ 0.0864 µM) | >10 | 0.37
20 | CCNC(=Nc1nc(C)ncc1CSc1nnc(-c2ccc([N+](=O)[O-])cc2)o1)NCC(F)(F)F [Compound A-175] | 0.015 (≈ 0.0302 µM) | 0.01 (≈ 0.0201 µM) | 0.0053 (≈ 0.0107 µM) | 0.01 (≈ 0.0201 µM) | 0.017 (≈ 0.0342 µM) | 3.33 (≈ 6.71 µM) | 0.0137
